Measured values taken from US4536335A, “Carbapenem antibiotics” (Bristol-Myers Company, priority 1983, dated 1985).

Assay: Half-life in phosphate buffer solution
Assay type: physicochemical
Settings: phosphate buffer, pH 7.4, concentration of 10^-4 M in phosphate buffer pH 7.4 at 36.8° C.; read-out: t1/2 (solution stability) (converted)
Description: A solution of para-nitrobenzyl 3-[2-(N-methylthiomorpholinium diphenylphosphate)ethylthio]-6α-[1'-(R)-hydroxyethyl]-7-oxo-1-azabicyclo[3.2.0]hept-2-ene-2-carboxylate (1.31 g, 1.76 mmol) in 0.1 M pH 7.4 phosphate buffer (48.8 mL), tetrahydrofuran (20 mL) and diethyl ether (20 mL) was hydrogenated over 10% pd/C (1.5 g) in a Parr shaker for 1 h at 40 psi. The reaction mixture was diluted with diethyl ether (40 mL) and the phases were separated. The organic phase was washed with water (2×5 mL). The aqueous phases were combined, filtered through a #52 hardened filter paper, washed with diethyl ether (2×20 mL) and pumped under vacuum. The aqueous solution was poured on a silica gel reverse phase column and the desired carbapenem was eluted with 5% acetonitrile-water.
To a solution of p-nitrobenzyl (5R,6S)-3-[2-(1-methylmorpholino)ethylthio]-6-[(R)-1-hydroxyethyl]-7-oxo-1-azabicyclo[3.2.0]hept-2-ene-2-carboxylate diphenylphosphate (0.360 g, 0.49 mmol) in 13 mL of phosphate buffer (0.05 M pH 7.4) was added 0.36 g of 10% palladium-on-charcoal, 20 mL of tetrahydrofuran and 20 mL of diethyl ether. This mixture was hydrogenated (Parr) at 32 psi for 1 h. The mixture was filtered through Celite and the filter pad was washed with H2 O and diethyl ether. The aqueous phase was separated and the pH was adjusted to 7.0 with additional pH 7.4 phosphate buffer. After removing residual organic solvents in vacuo the aqueous solution was applied to a C18 reverse-phase column.
To a solution of (5R,6S)paranitrobenzyl 3-[2-(1,4-dimethyl-1-piperazinium)ethylthio]-6-[1-(R)-hydroxyethyl]-7-oxo- 1-azabicyclo[3.2.0]hept-2-ene-2-carboxylate diphenylphosphate (0.47 g, 0.623 mmol) in wet tetrahydrofuran (25 mL) was added diethyl ether (25 mL), potassium phosphate monobasic-sodium hydroxide buffer (13 mL, pH 7.22) and 10% palladium on charcoal (0.47 g). The resulting mixture was hydrogenated at 23° C. under 40 psi for 1 h. The two layers were separated and the organic layer was extracted with water (2×7 mL).
To a cold (-10° C.) solution of (5R,6S)-3-[2 -(N-methyl-thiomorpholinium)ethylthio]-6-[1-(R)-hydroxyethyl]-7-oxo-1-azabicyclo(3.2.0)-hept-2-ene-2-carboxylate (608 mg, 1.65 mmol) in a 1:1 mixture of acetonitrile-water (9 mL) was added m-chloroperbenzoic acid (334.8 mg, 1.65 mmol) in small portion over a 1 hour period. The mixture was then diluted with water (15 mL) and washed with diethyl ether (3×15 mL).
A mixture of (5R,6S) paranitrobenzyl 3-[2-(1,4,4-trimethyl-1-piperazinium)ethylthio]-6-[1R-hydroxyethyl]-7-oxo- 1-azabicyclo(3.2.0)hept-2-ene-2-carboxylate bischloride (0.40 g, 0.68 mmol), phosphate buffer (30 mL, 0.05M, pH 7.0), tetrahydrofuran (10 mL), ether (30 mL) and 10% palladium on charcoal (0.40 g) was hydrogenated at 23° C. under 35 psi for 1 h. The two phases were separated. The organic phase was extracted with water (10 mL).

- half-life: 9.8 h
SMILES: C[C@@H](O)[C@H]1C(=O)N2C(C(=O)O)=C(SCC[N+]3(C)CC[N+](C)(C)CC3)C[C@H]12 [Example 6, (5R,6S)-3-[2-(1,4,4-Trimethyl-1-piperazinium)-ethylthio]-6-(1R-hydroxyethyl]-7-oxo-1-azabicyclo(3.2.0)hept-2-ene-2-carboxylate chloride]
